The target in test [1] is T1, purified porcine DP IV (Sus scrofa, UniProt P22411). The experiment in a line: Determination of IC50-values, Gly-Pro-pNA cleavage by DP IV. The class given is biochemical. Here is the method: (§1) 100 μl inhibitor stock solution were mixed with 100 μl buffer (HEPES pH 7.6) and 50 μl substrate (Gly-Pro-pNA, final concentration 0.4 mM) and preincubated at 30° C. Reaction was started by addition of 20 μl purified porcine DP IV. Formation of the product pNA was measured at 405 nm over 10 min using the HTS 7000 Plus plate reader (Perkin Elmer) and slopes were calculated. The final inhibitor concentrations ranged between 1 mM and 30 nM.
For calculation of IC50-values GraFit 4.0.13 (Erithacus Software) was used.

The target of test [2] is T1, purified porcine DP IV. The experiment in a line: Determination of Ki-values, Gly-Pro-pNA cleavage by DP IV. Format: biochemical. The note with it: Gly-Pro-pNA 0.05-0.4 mM. The procedure:
as §1
Calculations were performed using the GraFit Software.

The target in test [3] is T2, PEPT1 (Homo sapiens, UniProt P46059).
T2 construct: expressed in transfected cells; host or cells: transgenic yeast cells
T2 sequence (P46059 1-708): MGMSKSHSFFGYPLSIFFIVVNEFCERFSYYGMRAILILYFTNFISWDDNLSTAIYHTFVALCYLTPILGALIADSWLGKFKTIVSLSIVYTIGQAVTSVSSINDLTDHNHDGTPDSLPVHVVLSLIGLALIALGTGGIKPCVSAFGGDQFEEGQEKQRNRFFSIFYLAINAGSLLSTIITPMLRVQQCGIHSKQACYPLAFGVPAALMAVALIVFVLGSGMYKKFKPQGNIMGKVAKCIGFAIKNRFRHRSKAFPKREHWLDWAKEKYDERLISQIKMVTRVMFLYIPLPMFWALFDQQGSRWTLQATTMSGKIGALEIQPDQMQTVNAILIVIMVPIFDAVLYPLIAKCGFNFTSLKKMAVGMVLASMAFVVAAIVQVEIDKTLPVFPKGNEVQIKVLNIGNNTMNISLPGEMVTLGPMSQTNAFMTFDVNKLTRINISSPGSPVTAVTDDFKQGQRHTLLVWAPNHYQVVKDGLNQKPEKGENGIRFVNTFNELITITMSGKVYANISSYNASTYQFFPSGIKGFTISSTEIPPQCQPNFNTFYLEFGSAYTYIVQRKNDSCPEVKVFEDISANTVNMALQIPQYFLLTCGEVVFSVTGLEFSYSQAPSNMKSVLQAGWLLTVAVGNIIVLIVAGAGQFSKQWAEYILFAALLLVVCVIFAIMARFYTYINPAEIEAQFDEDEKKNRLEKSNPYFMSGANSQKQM
The experiment in a line: Competition assay with transgenic yeast cells, displacement of radiolabeled tracer dipeptide, PEPT1. The class given is binding, mammalian. An excerpt: (§2) For the analysis o the interaction of the inhibitors of prolyl-specific proteases with the mammalian peptide transporters two assay systems were used. First, all test compounds were submitted to the competition assay with transgenic yeast cells to determine the dose-dependent displacement (EC50 values) of the radiolabeled tracer dipepitde from the substrate binding site. […] As the level of functional expression varies in oocytes, each test compound was compared in the same oocyte with the current elicited by 5 mM of the dipeptide glycyl-L-glutamine (Gly-Gln). Currents of test compounds are therefore given relative to that by Gly-Gln as %I Gly-Gin, expressed as residual uptake in table 10.

Test [4] deals with T3, PEPT2 (Homo sapiens, UniProt Q16348).
T3 construct: expressed in transfected cells; host or cells: transgenic yeast cells
T3 sequence (Q16348 1-729): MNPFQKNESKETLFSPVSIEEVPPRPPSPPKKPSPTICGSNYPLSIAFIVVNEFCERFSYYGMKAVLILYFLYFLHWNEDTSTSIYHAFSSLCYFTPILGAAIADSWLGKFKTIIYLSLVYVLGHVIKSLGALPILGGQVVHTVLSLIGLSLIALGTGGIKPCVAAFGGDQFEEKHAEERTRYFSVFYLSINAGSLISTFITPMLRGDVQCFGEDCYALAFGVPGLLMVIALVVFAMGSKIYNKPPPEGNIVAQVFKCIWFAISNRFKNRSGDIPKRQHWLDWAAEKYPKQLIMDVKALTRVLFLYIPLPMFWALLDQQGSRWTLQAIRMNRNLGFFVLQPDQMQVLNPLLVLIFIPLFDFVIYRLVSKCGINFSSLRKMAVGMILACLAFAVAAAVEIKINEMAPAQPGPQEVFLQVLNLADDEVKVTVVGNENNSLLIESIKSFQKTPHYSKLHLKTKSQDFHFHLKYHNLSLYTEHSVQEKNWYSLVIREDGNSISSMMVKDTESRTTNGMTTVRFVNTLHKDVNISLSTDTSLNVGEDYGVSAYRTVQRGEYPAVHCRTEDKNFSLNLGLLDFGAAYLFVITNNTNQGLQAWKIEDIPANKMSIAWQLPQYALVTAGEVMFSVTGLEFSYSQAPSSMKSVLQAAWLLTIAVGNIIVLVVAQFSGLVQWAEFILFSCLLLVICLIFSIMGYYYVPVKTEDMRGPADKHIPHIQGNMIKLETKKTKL
The experiment in a line: Competition assay with transgenic yeast cells, displacement of radiolabeled tracer dipeptide, PEPT2. The class given is binding, mammalian.
Text: as §2

Test [5] addresses T2, PEPT1. Kind of test: Electrophysiological analysis of transport currents in Xenopus oocytes expressing PEPT1. Format: cell-based, mammalian. The note with it: transport current in Xenopus oocytes relative to 5 mM Gly-Gln.
Text: as §2

In test [6] the target is T3, PEPT2. Kind of test: Electrophysiological analysis of transport currents in Xenopus oocytes expressing PEPT2. Format: cell-based, mammalian. The note with it: transport current in Xenopus oocytes relative to 5 mM Gly-Gln.
Text: as §2

Test [7] addresses T4, plasma DP IV (Rattus norvegicus, UniProt P14740).
T4 construct: The assay mixture consisted of 80 μl reagent and 20 μl plasma; from tissue; host or cells: plasma of Wistar rats
Kind of test: Plasma DP IV activity after intravasal and oral administration in Wistar rats. Format: in vivo. Here is the method: Rats with intact catheter function were given the test substances intravasal (intraarterial) or oral, respectively, in random order (N=3 Wistar rats in each group). As positive control, […]. isoleucine thiazolidine*fumarate were administered intravasal.
After overnight fasting, 100 μl samples of heparinized arterial blood were collected at −30, −5, and 0 min into ice-cooled Eppendorf tubes (see below). The test substances were dissolved freshly in 1.0 ml saline (0.154 mol/l) and were given at 0 min either oral via a feeding tube ([…], 75 mm; Fine Science Tools, Heidelberg, Germany) or intravasal. For the intravasal route, the catheter was immediately flushed with 30 μl saline and an additional 1 ml of saline was given orally via the feeding tube.
Arterial blood samples were taken thereafter at 5, 10 (only in a limited number of experiments), 20, 40, 60 and 120 min from the carotid catheter of the conscious unrestrained rats and were always given into ice cooled Eppendorf tubes (Eppendorf-Netheler-Hinz, Hamburg, Germany) filled with 10 μl 1 M citrate buffer pH 3.0 for prevention of further hydrolysis of tripeptides by plasma DP IV activity. Eppendorf tubes were centrifuged immediately (12000 rpm for 2 min, Hettich Zentrifuge EBA 12, Tuttlingen; Germany): The plasma fractions were store on ice until analysis or were deeply frozen at −20 ° C. until analysis.
Plasma DP IV activity: The assay mixture consisted of 80 μl reagent and 20 μl plasma. Kinetic measurements of the formation of the yellow product 4-nitroaniline were performed at 390 nm for 1 min at 30° C. after 2 min pre-incubation at the same temperature. The activity was expressed as arbitrary units [AU] and DP IV activity [mU/ml].
The absolute values of plasma DP IV activity, the relative change of plasma DP IV activity and the time and extent of maximal inhibition were calculated. Data presentation included the presentation of area under the curve (AUC), which was used for evaluation of extent of inhibition of plasma DP IV activity during the two hours of observation. AUC was calculated using the trapezoidal rule.
To compare relative changes of parameters under the conditions of different initial values of DP IV activity an uniform standardised mean (values) was set up at the beginning of the test (see Figures and Tables).
Statistical evaluations were performed with Microsoft Excel® 97. All variables are presented as mean and standard deviation (SD). Treatment groups were compared by Student's t-test, within-group changes by paired t-test. Two-tailed values of p<0.05 were considered significant.

Setting [8] is: Gly-Pro-pNA 0.4 mM, HEPES pH 7.6, 30° C., read-out: IC50.
[9] abbreviates: displacement of radiolabeled tracer dipeptide, transgenic yeast cells, read-out: PEPT1 EC50.
The mark [10] stands for this setting: displacement of radiolabeled tracer dipeptide, transgenic yeast cells, read-out: PEPT2 EC50.

Each structure is given as a SMILES string. Where two headings read alike, the source gives them in different places. Square brackets hold non-standard residues; d marks the D form. Peptide text beside a SMILES is read from it. pY = N[C@@H](Cc1ccc(OP(=O)(O)O)cc1)C(=O)O; pS = N[C@@H](COP(=O)(O)O)C(=O)O; Cha = N[C@@H](CC1CCCCC1)C(=O)O; Tle = CC(C)(C)[C@H](N)C(=O)O

T1 sequence (P22411 whole entry): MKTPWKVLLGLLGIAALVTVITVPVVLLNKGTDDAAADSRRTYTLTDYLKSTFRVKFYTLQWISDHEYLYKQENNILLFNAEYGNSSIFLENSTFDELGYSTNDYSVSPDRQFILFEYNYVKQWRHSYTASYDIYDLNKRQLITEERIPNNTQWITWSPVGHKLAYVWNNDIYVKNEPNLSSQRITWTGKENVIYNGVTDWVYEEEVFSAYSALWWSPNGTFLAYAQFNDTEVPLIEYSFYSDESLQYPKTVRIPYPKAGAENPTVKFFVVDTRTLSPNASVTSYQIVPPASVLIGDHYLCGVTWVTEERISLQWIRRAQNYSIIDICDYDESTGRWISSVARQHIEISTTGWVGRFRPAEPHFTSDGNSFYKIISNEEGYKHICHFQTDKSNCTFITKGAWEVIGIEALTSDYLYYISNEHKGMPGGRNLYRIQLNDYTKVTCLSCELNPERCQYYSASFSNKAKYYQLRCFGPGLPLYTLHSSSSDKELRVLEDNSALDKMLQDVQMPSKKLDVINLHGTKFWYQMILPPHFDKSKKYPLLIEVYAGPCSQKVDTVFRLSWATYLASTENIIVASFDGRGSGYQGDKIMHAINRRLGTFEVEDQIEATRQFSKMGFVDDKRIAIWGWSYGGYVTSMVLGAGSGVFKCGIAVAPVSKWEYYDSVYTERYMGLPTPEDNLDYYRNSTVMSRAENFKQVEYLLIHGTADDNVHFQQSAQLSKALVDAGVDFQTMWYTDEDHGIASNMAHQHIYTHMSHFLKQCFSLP
T4 sequence (P14740 37-767 limits assumed): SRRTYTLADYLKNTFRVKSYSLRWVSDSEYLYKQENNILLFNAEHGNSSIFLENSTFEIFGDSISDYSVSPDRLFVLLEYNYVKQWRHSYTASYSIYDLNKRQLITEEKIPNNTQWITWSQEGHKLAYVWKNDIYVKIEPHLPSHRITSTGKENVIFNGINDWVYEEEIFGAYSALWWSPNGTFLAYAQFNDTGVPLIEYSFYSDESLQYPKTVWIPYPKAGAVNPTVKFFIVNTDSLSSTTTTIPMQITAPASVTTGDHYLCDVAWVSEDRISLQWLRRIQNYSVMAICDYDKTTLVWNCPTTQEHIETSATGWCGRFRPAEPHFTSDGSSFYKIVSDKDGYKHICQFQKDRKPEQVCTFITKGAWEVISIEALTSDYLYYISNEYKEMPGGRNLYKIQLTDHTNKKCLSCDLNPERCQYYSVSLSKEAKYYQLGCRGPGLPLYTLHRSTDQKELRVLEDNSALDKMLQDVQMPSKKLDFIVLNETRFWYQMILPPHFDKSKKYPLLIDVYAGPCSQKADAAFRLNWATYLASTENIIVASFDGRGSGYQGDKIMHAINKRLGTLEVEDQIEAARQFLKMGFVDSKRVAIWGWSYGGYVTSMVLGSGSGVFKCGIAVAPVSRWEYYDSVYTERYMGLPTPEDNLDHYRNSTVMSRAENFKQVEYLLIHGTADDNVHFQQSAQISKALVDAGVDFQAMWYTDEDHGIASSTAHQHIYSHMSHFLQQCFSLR

For the molecule `CC[C@H](C)[C@H](NC(=O)[C@@H]1CCCN1C(=O)[C@@H](N)CC1CCCCC1)C(=O)O` [Cha-Pro-Ile] (H-[Cha]-Pro-Ile-OH; N-terminus and C-terminus assumed), in test [1] (setting [8]), the IC50 was determined as 20.3 µM. The molecule also gave a Ki in test [2] of 5.99 µM. Besides, the figures for the 50% effective concentration (EC50) in test [3] (setting [9]) and in test [4] (setting [10]) were 141 ± 9 µM and 124 ± 1 µM, respectively. Moreover, the “PEPT1 Residual uptake % IGly-Gln” value in test [5] is 90 % IGly-Gln. Further, the “PEPT2 Residual uptake % IGly-Gln” value in test [6] amounted to 100 % IGly-Gln.
Turning to `CC[C@H](C)[C@H](NC(=O)[C@@H]1CCCN1C(=O)[C@@H](N)COP(=O)(O)O)C(=O)O` [Ser(P)-Pro-Ile] (H-[pS]-Pro-Ile-OH; N-terminus and C-terminus assumed), in test [1] (setting [8]), the concentration for half-maximal inhibition (IC50) was found to be 12000 µM. In addition, the figures for the EC50 in test [3] (setting [9]) and in test [4] (setting [10]) were 4100 ± 1300 µM and 4900 ± 1090 µM, respectively. Further, in test [5], the “PEPT1 Residual uptake % IGly-Gln” value turned out to be 0 % IGly-Gln. For the same molecule, in test [6], the “PEPT2 Residual uptake % IGly-Gln” value amounted to 0 % IGly-Gln.
In test [1], `CC[C@H](C)[C@H](NC(=O)[C@@H]1CCCN1C(=O)[C@@H](N)Cc1ccc(OP(=O)(O)O)cc1)C(=O)O` [Tyr(P)-Pro-Ile] (H-[pY]-Pro-Ile-OH; N-terminus and C-terminus assumed) gave an IC50 of 1770 µM. For the same molecule, in test [7] (Wistar rats, p.o., 100 mg/kg), the “DPIV inhibition at tmax, p.o.” value was “no inhibition”. The inhibition at 100 mg/kg in test [7] (rat, iv, read-out: DPIV inhibition at tmax, i.v.) is 37%. Moreover, the EC50 in test [3] is 902 ± 58 µM; in test [4], 390 ± 17 µM. Further, in test [5], the “PEPT1 Residual uptake % IGly-Gln” value came out at 0 % IGly-Gln. The “PEPT2 Residual uptake % IGly-Gln” value in test [6] was determined as 0 % IGly-Gln.
Turning to `CC[C@@H](C)[C@@H](NC(=O)[C@@H]1CCCN1C(=O)[C@@H](N)C(C)(C)C)C(=O)O` [t-butyl-Gly-Pro-D-Ile] (H-[Tle]-Pro-[dI]-OH; N-terminus and C-terminus assumed), the EC50 in test [3] (setting [9]) was found to be 10600 ± 64 µM; in test [4] (setting [10]), 2300 ± 1120 µM. In addition, the “PEPT1 Residual uptake % IGly-Gln” value in test [5] was found to be 0 % IGly-Gln. The “PEPT2 Residual uptake % IGly-Gln” value in test [6] is 0 % IGly-Gln.
On to `CC(C)[C@@H](NC(=O)[C@@H]1CCCN1C(=O)[C@@H](N)C(C)(C)C)C(=O)O` [t-butyl-Gly-Pro-D-Val] (H-[Tle]-Pro-[dV]-OH; N-terminus and C-terminus assumed), for which the IC50 in test [1] (setting [8]) is 112 µM. In test [2], this molecule came in with a Ki of 26.5 µM. Moreover, the EC50 came out at 11100 ± 2800 µM in test [3] (setting [9]) and 1500 ± 240 µM in test [4] (setting [10]). The “PEPT1 Residual uptake % IGly-Gln” value in test [5] is on record as 0 % IGly-Gln. Further, in test [6], the “PEPT2 Residual uptake % IGly-Gln” value was 0 % IGly-Gln.

Values taken from patent US20030135023A1, “Peptide structures useful for competitive modulation of dipeptidyl peptidase IV catalysis” (priority 2001, published 2003).
